Results on one compound are retold here after patent US9040568B2, “Pharmaceutical compositions for the treatment of pain” (AbbVie Inc., priority 2009, dated 2015).

In the data set the test system is emesis in ferrets. Description: Emesis in ferrets. In kind it is in vivo, ferret. Here is the method:
Fasted male ferrets (Marshall BioResources, North Rose, N.Y.) weighing between 1.0 and 1.7 kg are used to determine the emetic effects. α4β2 PAM (Compound 1) was administered first and thirty minutes later, Compound A was administered at various doses. […] The percentage of animals that experienced emesis at a given dose was recorded.

On to `N#Cc1cccc(-c2nc(-c3cccnc3)no2)c1` [Example 1, 3-(3-(pyridin-3-yl)-1,2,4-oxadiazol-5-yl)benzonitrile], for which, where the note is “Compound 1 3.5 μmol/kg with various doses of Compound A”, the “effect on the dose response curve of Compound A for emesis” value is “does not shift the dose response curve of Compound A”. Further, the emesis result (alone) was “does not cause emesis”.
